Type in all cases: binding
Experiment [1] has as its target T1, SARS-CoV-2 NSP3 Mac1 (Severe acute respiratory syndrome coronavirus 2, UniProt P0DTD1). The experiment in a line: biochemical. The following applies: for Ki: Ki estimation from HTRF-derived IC50, Cheng-Prusoff, peptide 400nM, Kd 2.68µM.
In experiment [2] the target is T1, SARS-CoV-2 NSP3 Mac1. The arrangement: contains a conserved macrodomain enzyme (Mac1). The note with it: for Spearman est (compound concentration vs apparent Tm): DSF dose responsiveness, 1 µM nsp3 mac1, adj p given. The method, boiled down: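 Differential scanning fluorimetry using 5 µM Fluorescent Yellow dye in place of SYPRO Orange. Compounds run in triplicate at seven two-fold dilutions from 1,000 or 100 μM, with ΔTma taken against a DMSO control in the same plate region. Dose-response significance assessed by Spearman's coefficient between concentration and ΔTma.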

Experiment [3] has as its target T1, SARS-CoV-2 NSP3 Mac1. The following applies: for Refined occupancy: ligand occupancy after refinement (phenix.refine); for binding to Mac1 in crystal soaking, result in words: soaks at 10 to 20 mM.
[4] abbreviates: PanDDA 1-BDC value of the event, crystal soak, compound concentration 100 mM, per dataset.
Setting [5] is: PanDDA event map, 1 minus background density correction, crystal soaking of Mac1.
The mark [6] stands for this setting: crystal soak, compound concentration 100 mM, per dataset.
Where [7] appears, read: ligand modeled in the crystal structure, crystal soak, compound concentration 100 mM, per dataset.
Where [8] appears, read: true hit = binding in crystallographic soaking or the HTRF-based binding assay.
The mark [9] stands for this setting: ligand modeled from this dataset, compound concentration 100 mM, Echo dispense volume 40 or 80 nl.
Setting [10] is: HTRF ADPr-peptide displacement from SARS-CoV-2 Mac1, read-out: IC50.
The mark [11] stands for this setting: HTRF, several values in a cell are separate determinations, read-out: IC50.
The mark [12] stands for this setting: maximal thermal upshift vs DMSO control.
The mark [13] stands for this setting: overall hit flag: binding in crystallographic soaking or the HTRF-based binding assay.

Consider seven compounds from PMC9926234, “Iterative computational design and crystallographic screening identifies potent inhibitors targeting the Nsp3 macrodomain of SARS-CoV-2” (Proceedings of the National Academy of Sciences of the …, 2023).

Like-named read-outs stand apart in the source and are kept apart here.

What is called IC50 is the concentration needed to halve the response being measured. The term Ki denotes the equilibrium dissociation constant of an inhibitor or competing ligand from its target.

`NC(=O)Nc1ccc(C(=O)NC2c3cccc(O)c3CC2C(=O)O)cc1` (centres unmarked) [Z8539_0041]: in experiment [1], the “binding to Mac1 in the HTRF assay, result in words” value was “did not substantially change binding affinity”. The IC50 in experiment [1] (HTRF, read-out: IC50) was 1.3 µM. The Ki in experiment [1] (read-out: Ki***) was 1.1 µM. Also, the “Spearman est (compound concentration vs apparent Tm)” value in experiment [2] was determined as 0.6. Moreover, the “DSF max dTma” value in experiment [2] (maximal thermal upshift) is given as 6 ˚C. Also, the 1-BDC in experiment [3] (setting [4]) and in experiment [3] (setting [5]) was 0.24 throughout. In addition, in experiment [3] (setting [6]), the “PanDDA hit?” value is on record as “TRUE”. Also, the “Modeled?” value in experiment [3] (setting [7]) is “TRUE”. For the same compound, in experiment [3] (crystal soaking of Mac1), the Refined occupancy is on record as 48. Moreover, the “HIT*” value in experiment [3] (setting [8]) is “Y”.

For `O=C(Nc1ccc(C(=O)NC2c3ccccc3CC2C(=O)O)cc1)NC1CC1` (centres unmarked) [8539_0029], in experiment [1] (read-out: Ki***), the Ki is 4.2 µM. In experiment [2], the “Spearman est (compound concentration vs apparent Tm)” value is given as 0.73. Also, in experiment [2] (maximal thermal upshift), the “DSF max dTma” value was 3.66 ˚C. In addition, the 1-BDC in experiment [3] (setting [4]) stood at 0.13; in experiment [3] (setting [5]), 0.11. Besides, the “PanDDA hit?” value in experiment [3] (setting [6]) is reported as “TRUE”. For the same compound, the “Modeled?” value in experiment [3] (setting [9]) is “TRUE”. The compound also returned a Refined occupancy in experiment [3] (crystal soaking of Mac1) of 22. Further, in experiment [3] (setting [8]), the “HIT*” value is reported as “Y”.

Take `O=C(O)CC1CN(c2ncnc3[nH]ccc23)CC2(CCC2)O1` (centres unmarked) [F6831]: the IC50 in experiment [1] (HTRF, read-out: IC50) came out at 44.2 µM. Moreover, the Ki in experiment [1] (read-out: Ki***) is 38.5 µM. Besides, the “Spearman est (compound concentration vs apparent Tm)” value in experiment [2] is 0.94. Besides, the “DSF max dTma” value in experiment [2] (maximal thermal upshift) is reported as 2.21 ˚C. In addition, in experiment [3], the “binding to Mac1 in crystal soaking, result in words” value is reported as “not confirmed by X-ray crystallography”. The “HIT*” value in experiment [3] (setting [8]) is “Y”.

In turn, `O=C(Nc1ccc(C(=O)NCc2c(C(=O)O)[nH]c3ccccc23)cc1)NC1CC1` [Z8539_0027] came in with an IC50 in experiment [1] (IC50, HTRF ADPr-peptide displacement from SARS-CoV-2 Mac1) of 7.6 µM. Also, the Ki in experiment [1] (Ki***) is 6.6 µM. Besides, the “Spearman est (compound concentration vs apparent Tm)” value in experiment [2] is 0.7. Besides, the “DSF max dTma” value in experiment [2] (maximal thermal upshift) is 6.22 ˚C. Besides, the 1-BDC in experiment [3] (setting [4]) amounted to 0.29; in experiment [3] (setting [5]) it was 0.23. For the same compound, the “PanDDA hit?” value in experiment [3] (setting [6]) was “TRUE”. The “Modeled?” value in experiment [3] (setting [9]) is given as “TRUE”. The Refined occupancy in experiment [3] (crystal soaking of Mac1) is on record as 46. Also, in experiment [3] (setting [8]), the “HIT*” value is listed as “Y”.

`CCc1c[nH]c2ncnc(N3CCC[C@H](C(N)=O)C3)c12` [Z3271]: the IC50 in experiment [1] (setting [10]) and in experiment [1] (setting [11]) was 204 µM throughout. Besides, the Ki in experiment [1] (read-out: Ki***) is 177 µM. Besides, the “Spearman est (compound concentration vs apparent Tm)” value in experiment [2] worked out at 0.97. Also, the “DSF max dTma” value in experiment [2] (setting [12]) is 1.77 °C. Further, the “HIT*” value in experiment [3] (setting [13]) is on record as “Y”. Moreover, in experiment [3], the “binding to Mac1 in crystal soaking, result in words” value is on record as “not confirmed by X-ray crystallography”.

With `CNC(=O)Nc1ccc(C(=O)NC2c3ccccc3CC2C(=O)O)cc1` (centres unmarked) [Z8515], the IC50 in experiment [1] (setting [10]) came to 7.9 µM; in experiment [1] (setting [11]), 10.3 µM. In addition, the Ki in experiment [1] (read-out: Ki***) was 9 µM. For the same compound, the “Spearman est (compound concentration vs apparent Tm)” value in experiment [2] was 0.98. Also, the “DSF max dTma” value in experiment [2] (setting [12]) was found to be 3.71 °C. In addition, the 1-BDC in experiment [3] (setting [4]) and in experiment [3] (setting [5]) was 0.09 each time. Moreover, the “PanDDA hit?” value in experiment [3] (setting [6]) was “TRUE”. Moreover, the “Modeled?” value in experiment [3] (setting [7]) was “TRUE”. In experiment [3] (crystal soaking of Mac1), this compound displayed a Refined occupancy of 18. Also, in experiment [3] (setting [13]), the “HIT*” value was “Y”.

Take `CC(C)NC(=O)Nc1ccc(C(=O)NC2c3cccc(O)c3CC2C(=O)O)cc1` (centres unmarked) [Z8539_0046]: the “binding to Mac1 in the HTRF assay, result in words” value in experiment [1] was “did not substantially change binding affinity”. Besides, the IC50 in experiment [1] (HTRF, read-out: IC50) came out at 0.8 µM. Further, the Ki in experiment [1] (read-out: Ki***) is 0.7 µM. Moreover, in experiment [2], the “Spearman est (compound concentration vs apparent Tm)” value was found to be 0.49. The “DSF max dTma” value in experiment [2] (maximal thermal upshift) is 6.41 ˚C. The 1-BDC stood at 0.23 in experiment [3] (setting [4]) and 0.21 in experiment [3] (setting [5]). Also, in experiment [3] (setting [6]), the “PanDDA hit?” value is “TRUE”. The “Modeled?” value in experiment [3] (setting [9]) is given as “TRUE”. Besides, the Refined occupancy in experiment [3] (crystal soaking of Mac1) turned out to be 42. Further, in experiment [3] (setting [8]), the “HIT*” value was “Y”.
